In ChEMBL document CHEMBL1201862, “PubChem BioAssay data set” (2004):
Calls of active or inactive are those of the source.

Tests used:
[1] = nonselective StAR promoter luciferase inhibitors – cell-based, luminescence, luciferase reporter, counter-screen for LRH-1 inverse agonist project, dose response (AID 651969); assay type: functional
Steroidogenic factor 1 = Steroidogenic factor 1 (Homo sapiens, UniProt Q13285); assay: Counterscreen for inverse agonists of the liver receptor homolog-1 (LRH-1; NR5A2): Luminescence-based cell-based high throughput dose response assay to identify inverse agonists of the Steroidogenic Factor 1 Nuclear Receptor (SF1; NR5A1).; assay type: functional
[2] = biological target: Nuclear receptor subfamily 5 group A member 2 (Homo sapiens, UniProt O00482); assay type: functional, cell-based;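 further: HEK293T cells transfected with LRH-1 and a StAR promoter luciferase reporter; potency for inhibitors that lower LRH-1 driven reporter light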
[3] = NIH3T3 cell viability loss – ATP luminescence, mouse fibroblasts, counter-screen, dose response (AID 2010); assay type: functional, cell-based;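 further: cells exposed to compound for about 90 hours before reading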
[4] = biological target: T1, Zinc finger protein mex-5 (Caenorhabditis elegans, UniProt Q9XUB2); assay: potency of MEX-5 RNA-binding blockers – biochemical, C. elegans, fluorescence polarization, dose response (AID 1960)
T1 sequence (Q9XUB2 whole entry): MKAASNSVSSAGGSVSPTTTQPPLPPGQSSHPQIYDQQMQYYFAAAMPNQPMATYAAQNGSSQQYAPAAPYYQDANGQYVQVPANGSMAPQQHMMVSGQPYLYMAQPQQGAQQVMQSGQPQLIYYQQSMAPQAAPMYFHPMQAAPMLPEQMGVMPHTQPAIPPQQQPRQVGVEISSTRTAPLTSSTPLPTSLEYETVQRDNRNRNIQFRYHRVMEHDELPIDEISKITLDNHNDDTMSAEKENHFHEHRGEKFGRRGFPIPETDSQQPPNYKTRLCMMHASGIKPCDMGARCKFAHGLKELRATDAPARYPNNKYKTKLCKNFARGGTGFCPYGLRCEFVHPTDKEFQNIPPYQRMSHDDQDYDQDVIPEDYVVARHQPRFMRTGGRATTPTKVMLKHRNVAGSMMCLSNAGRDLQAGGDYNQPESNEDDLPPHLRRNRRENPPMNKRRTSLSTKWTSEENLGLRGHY

[5] = biological target: T2, RNA-binding protein pos-1 (Caenorhabditis elegans, UniProt G5EF15); assay: disruptors of C. elegans POS-1 RNA interaction – biochemical, fluorescence polarization, dose response (AID 1964);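 further: purified POS-1 fused to maltose binding protein made in E. coli; potency of compounds blocking POS-1 binding to fluorescent RNA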
T2 sequence (G5EF15 whole entry): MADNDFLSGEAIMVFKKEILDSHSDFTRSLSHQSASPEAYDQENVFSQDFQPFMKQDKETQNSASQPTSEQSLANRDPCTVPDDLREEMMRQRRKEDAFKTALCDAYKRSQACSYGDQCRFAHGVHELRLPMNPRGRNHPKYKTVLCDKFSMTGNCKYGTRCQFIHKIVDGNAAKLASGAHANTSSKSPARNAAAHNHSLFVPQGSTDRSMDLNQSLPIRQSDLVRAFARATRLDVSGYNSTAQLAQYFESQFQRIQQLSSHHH

Albumin = Albumin (Bos taurus, UniProt P02769); assay: Counterscreen for inhibitors of T-cell receptor (TCR)-CD3 interaction: Fluorescence-based biochemical high throughput dose response assay to identify inhibitors of T-cell receptor (TCR)-CD3 interaction using a TAMRA-labeled BSA probe.; assay type: functional
[6] = Trypanosoma cruzi growth suppression in host cells – NIH3T3 host cells, beta-gal luminescence, confirmation (AID 2044); assay type: functional, cell-based;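 further: intracellular parasites grown in NIH/3T3 mouse fibroblasts as host cells; luminescent beta-galactosidase reporter signal from transgenic T. cruzi replicating inside host cells; inhibitors lower the luminescence signal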
cells [7] = assay type: functional, cell-based
cells [8] = assay type: functional, cell-based; remark: listed apart in the source
[9] = biological target: Fructose-bisphosphate aldolase (Mycobacterium tuberculosis, UniProt P9WQA3); assay: Fluorescence-based biochemical high throughput dose response assay for inhibitors of the fructose-bisphosphate aldolase (FBA) of M. tuberculosis.; assay type: functional
[10] = biological target: 5-hydroxytryptamine receptor 2A (Mus musculus, UniProt P35363); assay type: functional, cell-based;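 further: CHO-K1 cells with tagged receptor and beta-arrestin; agonist potency measured as compound-induced activation of the receptor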
Mu-type opioid receptor = Mu-type opioid receptor (Homo sapiens, UniProt P35372); assay type: functional, cell-based;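 further: U2OS cells with beta-arrestin recruitment to OPRM1 by beta-gal complementation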
[11] = viability of uninfected HEp-2 cells – cell-based, HTS, cytotoxicity control for RSV inhibitor project, dose response (AID 2410); assay type: functional; conditions: human respiratory syncytial virus
Vero = assay: cells; assay type: functional; conditions: Chlorocebus sabaeus
[12] = biological target: Long-chain-fatty-acid--AMP ligase FadD28 (Mycobacterium tuberculosis, UniProt P9WQ59); assay: Fluorescence polarization aasay to screen for inhibitors that compete for the binding of FadD28 to a bisubstrate Measured in Biochemical System Using Plate Reader - 2147-01_Inhibitor_Dose_CherryPick_Activity.; assay type: functional, Mycobacterium tuberculosis H37Rv
[13] = Counterscreen for antagonists of the human trace amine associated receptor 1 (hTAAR1): Fluorescence-based cell-based high throughput dose response assay to identify nonselective Ga16 antagonists.; assay type: functional
[14] = Counterscreen for […] of the human trace amine associated receptor 1 (TAAR1): Fluorescence-based cell-based high throughput dose response assay to identify nonselective Ga16 agonists.; assay type: functional
[15] = microbe, parasite or virus in culture; assay type: functional; conditions: Mycobacterium tuberculosis
[16] = tested on: Streptococcus sp. 'group A'; assay: Streptococcus pyogenes SK(-)GAS viability under kanamycin – luminescence, BacTiterGlo, confirmation, counter-screen for streptokinase expression inhibitor project, dose response (AID 1900); assay type: functional, organism-based
cells [17] = assay type: functional
[18] = bead-based luminescence quenchers, dual-tagged ARNT – biochemical, AlphaScreen, cherry-pick, artefact control for ARNT-TACC3 interaction inhibitor project, dose response (AID 651705); assay type: functional;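 further: AlphaScreen bead proximity signal that flags compounds interfering with the detection technology; potency reflects signal decrease which marks the compound as an assay artifact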
Streptococcus = assay: GAS UMAA2166 growth inhibition – luminescence, BacTiterGlo, counter-screen for streptokinase expression inhibitor project, dose response (AID 1915); assay type: functional, organism-based;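 further: potency for reduction of bacterial viability or growth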
Streptokinase A = biological target: T3, Streptokinase A (Streptococcus pyogenes serotype M1, UniProt P10520); assay: viability-normalized secreted streptokinase activity reduction – plasminogen activation absorbance, OD405, dose response (AID 1914); assay type: functional, Streptococcus pyogenes M1 GAS;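 further: secreted streptokinase activity via plasminogen activation per viability signal from cell pellet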
T3 sequence (P10520 whole entry): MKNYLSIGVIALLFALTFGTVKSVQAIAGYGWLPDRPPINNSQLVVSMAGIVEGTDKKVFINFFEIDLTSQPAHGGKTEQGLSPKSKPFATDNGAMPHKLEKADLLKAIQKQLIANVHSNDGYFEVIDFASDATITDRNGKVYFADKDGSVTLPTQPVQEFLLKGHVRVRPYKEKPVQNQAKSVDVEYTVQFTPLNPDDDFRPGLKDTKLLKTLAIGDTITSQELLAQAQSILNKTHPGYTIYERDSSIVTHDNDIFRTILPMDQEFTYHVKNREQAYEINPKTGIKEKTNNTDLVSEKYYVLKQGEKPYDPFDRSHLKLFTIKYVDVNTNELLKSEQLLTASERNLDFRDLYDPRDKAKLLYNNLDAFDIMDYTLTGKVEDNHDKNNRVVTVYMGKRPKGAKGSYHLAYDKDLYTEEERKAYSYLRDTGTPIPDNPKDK

[19] = biological target: T4, Probable nicotinate-nucleotide adenylyltransferase (Staphylococcus aureus (strain N315), UniProt P65502); assay type: functional, Staphylococcus aureus subsp. aureus N315;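 on IC50 Mean: confirmatory dose-response retesting of NadD inhibitor hits first found in an ultra-high-throughput screen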
[20] = biological target: Photoreceptor-specific nuclear receptor (Homo sapiens, UniProt Q9Y5X4); assay type: functional, cell-based;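 further: CHO-S cells with Gal4-NCOR and VP16-NR2E3 two-hybrid luciferase reporter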
[21] = biological target: T4, Probable nicotinate-nucleotide adenylyltransferase; assay type: functional, Staphylococcus aureus subsp. aureus N315; conditions: read-out: IC50_Mean
[22] = inhibition of ARNT PAS-B/TACC3 complex formation – biochemical, AlphaScreen, cherry-picked samples, confirmation (AID 651703); assay type: functional, Homo sapiens;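 further: His-tagged ARNT PAS-B domain paired with GST-TACC3 E629A dimer coactivator fragment; potency of inhibitors that break up the complex and lower AlphaScreen signal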
[23] = biological target: T5, Beta-2 adrenergic receptor (Homo sapiens, UniProt P07550); assay: ADRB2 activation measured by internalization – cell-based, FAP fluorogen, flow cytometry, cherry pick 1, dose response (AID 588763); assay type: functional
[24] = biological target: T5, Beta-2 adrenergic receptor; assay: Dose response for HTS for Beta-2AR agonists via FAP method from Powderset1.; assay type: functional
SUMO-activating enzyme = SUMO-activating enzyme (Homo sapiens, UniProt Q9UBT2); assay: blockers of UBC9-mediated SUMO conjugation – biochemical, AlphaScreen, SUMOylation inhibitor project, confirmation (AID 2018); assay type: functional
Sequence of SUMO-activating enzyme (Q9UBE0 whole entry): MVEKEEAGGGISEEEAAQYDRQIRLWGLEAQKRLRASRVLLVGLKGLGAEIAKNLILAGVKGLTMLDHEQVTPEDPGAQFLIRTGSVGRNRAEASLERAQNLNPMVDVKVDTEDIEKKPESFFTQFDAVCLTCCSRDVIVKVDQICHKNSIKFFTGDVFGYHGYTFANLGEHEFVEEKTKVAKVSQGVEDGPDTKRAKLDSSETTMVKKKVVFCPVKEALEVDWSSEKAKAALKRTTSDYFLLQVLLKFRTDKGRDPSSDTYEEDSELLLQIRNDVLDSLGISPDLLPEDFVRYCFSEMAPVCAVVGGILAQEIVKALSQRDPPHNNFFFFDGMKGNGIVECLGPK
Sequence of SUMO-activating enzyme (Q9UBT2 whole entry): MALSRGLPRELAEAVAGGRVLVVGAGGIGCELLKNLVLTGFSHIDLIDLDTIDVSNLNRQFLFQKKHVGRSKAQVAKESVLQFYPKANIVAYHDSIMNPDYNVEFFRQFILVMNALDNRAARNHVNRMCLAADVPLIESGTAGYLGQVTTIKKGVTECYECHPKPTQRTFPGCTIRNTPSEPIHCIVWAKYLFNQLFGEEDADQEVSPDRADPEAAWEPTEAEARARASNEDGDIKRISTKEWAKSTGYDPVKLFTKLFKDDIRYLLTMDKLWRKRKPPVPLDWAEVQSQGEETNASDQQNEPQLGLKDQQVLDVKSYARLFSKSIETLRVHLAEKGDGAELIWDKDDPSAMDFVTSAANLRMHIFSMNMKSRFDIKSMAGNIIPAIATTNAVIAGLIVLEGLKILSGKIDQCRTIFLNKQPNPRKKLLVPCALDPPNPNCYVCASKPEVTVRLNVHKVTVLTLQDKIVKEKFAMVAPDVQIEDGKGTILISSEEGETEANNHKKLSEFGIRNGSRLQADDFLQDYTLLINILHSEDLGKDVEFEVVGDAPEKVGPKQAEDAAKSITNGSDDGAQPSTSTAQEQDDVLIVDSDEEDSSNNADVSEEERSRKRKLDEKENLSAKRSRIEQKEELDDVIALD

T4 sequence (P65502 whole entry, the tested form may be a part): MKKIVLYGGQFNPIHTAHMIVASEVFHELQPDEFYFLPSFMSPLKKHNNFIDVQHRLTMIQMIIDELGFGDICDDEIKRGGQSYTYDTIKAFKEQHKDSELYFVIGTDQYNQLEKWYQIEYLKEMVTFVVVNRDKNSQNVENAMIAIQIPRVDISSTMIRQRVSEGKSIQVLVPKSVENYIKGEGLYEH
T5 sequence (P07550 whole entry): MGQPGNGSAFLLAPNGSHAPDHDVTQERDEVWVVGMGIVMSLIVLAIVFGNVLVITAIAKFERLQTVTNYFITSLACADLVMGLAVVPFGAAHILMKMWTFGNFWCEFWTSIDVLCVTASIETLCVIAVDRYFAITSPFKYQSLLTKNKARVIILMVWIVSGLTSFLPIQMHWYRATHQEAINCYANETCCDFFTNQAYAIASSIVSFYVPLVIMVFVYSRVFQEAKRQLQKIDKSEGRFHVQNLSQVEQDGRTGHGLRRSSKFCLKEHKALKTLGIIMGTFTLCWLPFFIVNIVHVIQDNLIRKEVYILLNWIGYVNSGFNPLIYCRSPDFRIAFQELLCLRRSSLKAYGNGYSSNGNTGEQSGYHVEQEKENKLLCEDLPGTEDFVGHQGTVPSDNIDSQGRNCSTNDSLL
Sequence of 5-hydroxytryptamine receptor 2A (P35363 whole entry): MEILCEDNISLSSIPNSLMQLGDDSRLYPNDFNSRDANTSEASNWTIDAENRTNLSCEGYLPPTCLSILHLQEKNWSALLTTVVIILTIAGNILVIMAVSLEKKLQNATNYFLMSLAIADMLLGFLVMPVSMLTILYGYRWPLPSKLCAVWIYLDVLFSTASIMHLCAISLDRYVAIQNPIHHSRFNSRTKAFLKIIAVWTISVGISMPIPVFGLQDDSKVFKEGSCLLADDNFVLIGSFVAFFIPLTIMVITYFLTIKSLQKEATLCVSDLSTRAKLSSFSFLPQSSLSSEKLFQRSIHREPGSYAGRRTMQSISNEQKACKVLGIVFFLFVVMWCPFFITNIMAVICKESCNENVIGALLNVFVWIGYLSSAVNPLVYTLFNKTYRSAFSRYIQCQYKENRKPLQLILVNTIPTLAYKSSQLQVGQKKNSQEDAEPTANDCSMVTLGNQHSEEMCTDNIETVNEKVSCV
Sequence of Mu-type opioid receptor (P35372 whole entry): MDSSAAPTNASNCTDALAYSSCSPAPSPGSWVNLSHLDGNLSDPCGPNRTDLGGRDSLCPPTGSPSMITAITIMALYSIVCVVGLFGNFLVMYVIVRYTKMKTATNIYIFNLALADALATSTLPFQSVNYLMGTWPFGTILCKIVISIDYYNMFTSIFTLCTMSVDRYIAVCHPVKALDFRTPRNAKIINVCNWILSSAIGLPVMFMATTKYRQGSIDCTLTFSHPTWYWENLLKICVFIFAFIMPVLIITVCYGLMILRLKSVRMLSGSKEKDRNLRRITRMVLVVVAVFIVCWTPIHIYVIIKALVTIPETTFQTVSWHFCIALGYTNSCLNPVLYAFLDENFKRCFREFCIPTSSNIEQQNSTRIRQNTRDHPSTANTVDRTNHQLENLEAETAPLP
Sequence of Steroidogenic factor 1 (Q13285 whole entry): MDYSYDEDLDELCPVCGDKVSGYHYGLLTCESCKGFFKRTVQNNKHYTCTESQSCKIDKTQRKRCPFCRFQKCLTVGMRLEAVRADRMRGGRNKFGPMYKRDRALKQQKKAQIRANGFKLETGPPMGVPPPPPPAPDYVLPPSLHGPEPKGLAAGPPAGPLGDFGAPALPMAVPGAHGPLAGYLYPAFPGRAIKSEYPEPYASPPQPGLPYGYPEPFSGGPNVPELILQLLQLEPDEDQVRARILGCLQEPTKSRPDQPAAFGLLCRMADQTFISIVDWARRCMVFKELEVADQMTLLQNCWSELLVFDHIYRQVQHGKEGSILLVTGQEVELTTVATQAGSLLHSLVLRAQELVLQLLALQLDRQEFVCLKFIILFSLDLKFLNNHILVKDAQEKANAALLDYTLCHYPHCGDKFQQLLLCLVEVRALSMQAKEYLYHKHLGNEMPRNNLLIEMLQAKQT
Sequence of Nuclear receptor subfamily 5 group A member 2 (O00482 whole entry): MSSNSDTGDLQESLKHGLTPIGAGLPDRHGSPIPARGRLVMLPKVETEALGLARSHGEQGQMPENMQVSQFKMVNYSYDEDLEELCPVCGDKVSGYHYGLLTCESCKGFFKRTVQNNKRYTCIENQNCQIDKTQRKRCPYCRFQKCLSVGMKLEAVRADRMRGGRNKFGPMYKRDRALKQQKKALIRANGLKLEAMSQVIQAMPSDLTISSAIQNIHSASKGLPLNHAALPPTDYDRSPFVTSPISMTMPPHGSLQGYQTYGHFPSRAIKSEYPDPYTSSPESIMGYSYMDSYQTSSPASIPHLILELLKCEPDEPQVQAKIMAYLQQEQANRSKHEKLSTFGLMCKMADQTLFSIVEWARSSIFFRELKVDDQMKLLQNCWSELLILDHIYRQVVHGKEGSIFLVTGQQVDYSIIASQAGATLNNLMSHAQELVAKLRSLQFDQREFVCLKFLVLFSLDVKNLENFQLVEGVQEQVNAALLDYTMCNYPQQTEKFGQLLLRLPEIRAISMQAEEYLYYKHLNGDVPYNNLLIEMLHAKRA
Sequence of Fructose-bisphosphate aldolase (P9WQA3 whole entry): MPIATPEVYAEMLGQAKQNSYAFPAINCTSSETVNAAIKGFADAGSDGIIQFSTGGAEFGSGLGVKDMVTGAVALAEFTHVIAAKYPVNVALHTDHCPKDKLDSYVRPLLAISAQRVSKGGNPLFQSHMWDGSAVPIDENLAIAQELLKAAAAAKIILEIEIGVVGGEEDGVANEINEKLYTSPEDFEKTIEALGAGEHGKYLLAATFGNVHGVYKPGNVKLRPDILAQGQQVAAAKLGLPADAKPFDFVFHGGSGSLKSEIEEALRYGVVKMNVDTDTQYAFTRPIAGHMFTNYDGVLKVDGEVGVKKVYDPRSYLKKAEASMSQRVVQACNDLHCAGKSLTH
Sequence of Photoreceptor-specific nuclear receptor (Q9Y5X4 whole entry, the tested form may be a part): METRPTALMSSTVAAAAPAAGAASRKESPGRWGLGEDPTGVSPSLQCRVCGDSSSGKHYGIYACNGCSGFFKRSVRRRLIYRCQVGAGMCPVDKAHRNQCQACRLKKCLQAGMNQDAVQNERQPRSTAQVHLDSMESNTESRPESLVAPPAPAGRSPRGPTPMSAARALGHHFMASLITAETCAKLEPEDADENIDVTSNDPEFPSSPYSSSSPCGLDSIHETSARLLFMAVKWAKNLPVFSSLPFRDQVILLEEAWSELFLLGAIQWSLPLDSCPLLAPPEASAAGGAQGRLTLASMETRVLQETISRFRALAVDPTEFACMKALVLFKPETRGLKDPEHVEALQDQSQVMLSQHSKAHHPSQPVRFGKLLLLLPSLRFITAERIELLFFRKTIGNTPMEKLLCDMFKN
Sequence of Albumin (P02769 whole entry): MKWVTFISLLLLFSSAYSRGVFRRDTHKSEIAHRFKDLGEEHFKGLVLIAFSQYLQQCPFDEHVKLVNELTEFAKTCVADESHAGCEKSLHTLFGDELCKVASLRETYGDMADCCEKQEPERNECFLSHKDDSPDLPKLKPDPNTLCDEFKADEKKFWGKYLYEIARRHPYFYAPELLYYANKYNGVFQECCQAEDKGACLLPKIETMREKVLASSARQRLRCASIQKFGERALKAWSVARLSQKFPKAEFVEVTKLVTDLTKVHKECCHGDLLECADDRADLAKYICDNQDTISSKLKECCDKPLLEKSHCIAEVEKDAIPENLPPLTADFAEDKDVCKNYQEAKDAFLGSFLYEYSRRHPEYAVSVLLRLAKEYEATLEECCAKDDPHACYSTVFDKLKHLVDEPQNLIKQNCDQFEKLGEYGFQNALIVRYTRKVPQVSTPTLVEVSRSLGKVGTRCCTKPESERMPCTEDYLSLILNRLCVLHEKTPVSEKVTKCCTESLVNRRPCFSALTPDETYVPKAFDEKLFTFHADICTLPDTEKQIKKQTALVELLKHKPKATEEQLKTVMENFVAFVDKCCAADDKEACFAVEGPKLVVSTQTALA

O=C(COc1ccc2c3c(c(=O)oc2c1)CCCC3)NCCN1CCOCC1
IC50 [1]: 35.8 µM (inactive) | IC50 (Steroidogenic factor 1): 17 µM (inactive) | IC50 [2]: 35.8 µM (inactive)

O=C(N/N=C/c1cc(Cl)cc([N+](=O)[O-])c1O)c1ccc2c(c1)OCO2
EC50 [3]: 5.65 µM (active) | EC50 [4]: 241 µM (active) | EC50 [5]: 127 µM (active) | IC50 (Albumin): > 94.1 µM (inactive) | EC50 [6]: 1.1 µM (active)

O=C(O)C1CC=C(Cl)CC1C(=O)NCC1OCCc2ccccc21 (stereo not given)
EC50 (cells [7]): > 29.9 µM (inactive) | IC50 (cells [8]): > 29.9 µM (inactive)

O=C(NC1CCCCC1)c1ccc2[nH]c(=O)c(=O)[nH]c2c1
IC50 [9]: 2.36 µM (active)

COc1cc(NC(=O)Cn2ccsc2=N)c(C)cc1[N+](=O)[O-]
IC50 [1]: 35.9 µM (inactive) | IC50 (Steroidogenic factor 1): 25.3 µM (inactive) | IC50 [2]: 35.9 µM (inactive)

C1=CC2CC1CC2CN1CCN(c2ccccc2)CC1 (stereo not given)
EC50 [10]: 76.1 µM (inactive) | EC50 (Mu-type opioid receptor): 92.5 µM (inactive)

Cc1cc(=O)oc2cc(OCCc3ccccc3)ccc12
CC50 [11]: 35.1 µM (active) | CC50 (Vero): > 25 µM (active) | IC50 [9]: 1.35 µM (active)

Cc1nc2ccccc2n1-c1ccccc1
AC50 [12]: 29.5 µM (active)

CCOCCOc1cccc(C(=O)NC(c2ccccc2)c2ccccc2)c1
IC50 [13]: 10 µM (inactive) | EC50 [14]: 10.3 µM (inactive)

Cc1c(Cl)cccc1-c1ccc(CNCc2ccccn2)o1
CC50 [15]: > 40 µM (active) | EC50 [16]: 13 µM (active) | IC50 (cells [17]): 0.55 µM (active) | AC50 [18]: 87.3 µM (active) | EC50 (Streptococcus): 70.2 µM (active) | EC50 (Streptokinase A): > 150 µM (not active)

O=C(Nc1nnc(-c2cccs2)o1)c1cc(-c2ccccc2)nc2ccccc12
IC50 [19]: 6.58 µM (active) | IC50 [20]: 3.67 µM (active) | IC50 [21]: 27.6 µM (active)

COc1ccccc1NC(=O)CSc1ccc2nnc(-c3cccnc3)n2n1
AC50 [18]: 127 µM (active) | AC50 [22]: 118 µM (active)

CCCN[C@H]1CCc2nc(N)sc2C1
EC50 [10]: 0.00651 µM (active) | EC50 (Mu-type opioid receptor): 92.5 µM (inactive)

COc1ccc(CN2CCC(Oc3ccc(C(=O)N4CCCC4)cc3)CC2)c(F)c1
EC50 [23]: 4.66 µM (active) | EC50 [24]: 5.42 µM (active)

O=C(O)c1ccc(/C=N/NC(=O)c2ccc(CN3c4cccc5cccc(c45)S3(=O)=O)cc2)cc1
IC50 [19]: 5.94 µM (active) | IC50 (SUMO-activating enzyme): 10.9 µM (active) | IC50 [21]: 27.2 µM (active)
